ChEMBL document CHEMBL2429748, “DFT-based prediction of antifungal and insecticidal activities of perfluorophenyl antimony(III) and antimony(V) chlorides” (Med Chem Res, 2013)

How the values were obtained:
Assay type in all cases: functional, organism-based
Aspergillus niger [1] = assay: Antifungal activity against Aspergillus niger assessed as growth inhibition at 50 ug/mL by agar diffusion method relative to control
Aspergillus niger [2] = assay: Antifungal activity against Aspergillus niger assessed as growth inhibition at 100 ug/mL by agar diffusion method relative to control
Aspergillus niger [3] = assay: Antifungal activity against Aspergillus niger assessed as growth inhibition at 20 ug/mL by agar diffusion method relative to control
Aspergillus flavus [4] = assay: Antifungal activity against Aspergillus flavus assessed as growth inhibition at 100 ug/mL by agar diffusion method relative to control
Aspergillus niger [5] = assay: Antifungal activity against Aspergillus niger assessed as growth inhibition at 10 ug/mL by agar diffusion method relative to control
Aspergillus flavus [6] = assay: Antifungal activity against Aspergillus flavus assessed as growth inhibition at 20 ug/mL by agar diffusion method relative to control
Aspergillus flavus [7] = assay: Antifungal activity against Aspergillus flavus assessed as growth inhibition at 10 ug/mL by agar diffusion method relative to control
Aspergillus flavus [8] = assay: Antifungal activity against Aspergillus flavus assessed as growth inhibition at 50 ug/mL by agar diffusion method relative to control

Substance	growth inhibition (GI) (Aspergillus niger [1])	growth inhibition (GI) (Aspergillus niger [2])	growth inhibition (GI) (Aspergillus niger [3])	growth inhibition (GI) (Aspergillus flavus [4])	growth inhibition (GI) (Aspergillus niger [5])	growth inhibition (GI) (Aspergillus flavus [6])	growth inhibition (GI) (Aspergillus flavus [7])	growth inhibition (GI) (Aspergillus flavus [8])
chloro(ethyl)tris(pentafluorophenyl)-{5}-stibane	80%	95%	75%	96.7%	60%	73.3%	66.6%	83.3%
dichloro(perfluorophenyl)stibine	75%	90%	60%	73.3%	50%	60%	53.3%	66.6%
trichlorobis(pentafluorophenyl)-{5}-stibane	60%	75%	40%	96.7%	25%	76.6%	60%	83.3%
chlorobis(perfluorophenyl)stibine	70%	95%	50%	86.7%	25%	66.6%	53.3%	76.6%
tris(perfluorophenyl)stibine	75%	90%	50%	86.7%	50%	66.6%	60%	80%
tetrachloro(pentafluorophenyl)-{5}-stibane	75%	90%	40%	93.3%	30%	80%	73.3%	86.7%
dichlorotris(pentafluorophenyl)-{5}-stibane	60%	80%	50%	83.3%	30%	66.6%	60%	73.3%
